From patent US10759795B2, “Aza-A-ring indenoisoquinoline topoisomerase I poisons” (Purdue Research Foundation, priority 2016, dated 2020) come the findings set out here.

pIC50: −log10 of the molar value. Values joined by “and” are separate entries in the source; they are usually repeats but may differ in a detail not shown here. Identical values can stand only once. Counter-ions that a name gives are not always drawn. Where only a bound is given, the exact number is not on record here.

As usually defined, the melting point is the temperature of the solid-liquid transition. One may read the pIC50 as −log10 of the IC50, conventionally taken in molar units.

The target in data set [1] is T1, Top1 (Homo sapiens, UniProt P11387).
T1 sequence (P11387 1-765): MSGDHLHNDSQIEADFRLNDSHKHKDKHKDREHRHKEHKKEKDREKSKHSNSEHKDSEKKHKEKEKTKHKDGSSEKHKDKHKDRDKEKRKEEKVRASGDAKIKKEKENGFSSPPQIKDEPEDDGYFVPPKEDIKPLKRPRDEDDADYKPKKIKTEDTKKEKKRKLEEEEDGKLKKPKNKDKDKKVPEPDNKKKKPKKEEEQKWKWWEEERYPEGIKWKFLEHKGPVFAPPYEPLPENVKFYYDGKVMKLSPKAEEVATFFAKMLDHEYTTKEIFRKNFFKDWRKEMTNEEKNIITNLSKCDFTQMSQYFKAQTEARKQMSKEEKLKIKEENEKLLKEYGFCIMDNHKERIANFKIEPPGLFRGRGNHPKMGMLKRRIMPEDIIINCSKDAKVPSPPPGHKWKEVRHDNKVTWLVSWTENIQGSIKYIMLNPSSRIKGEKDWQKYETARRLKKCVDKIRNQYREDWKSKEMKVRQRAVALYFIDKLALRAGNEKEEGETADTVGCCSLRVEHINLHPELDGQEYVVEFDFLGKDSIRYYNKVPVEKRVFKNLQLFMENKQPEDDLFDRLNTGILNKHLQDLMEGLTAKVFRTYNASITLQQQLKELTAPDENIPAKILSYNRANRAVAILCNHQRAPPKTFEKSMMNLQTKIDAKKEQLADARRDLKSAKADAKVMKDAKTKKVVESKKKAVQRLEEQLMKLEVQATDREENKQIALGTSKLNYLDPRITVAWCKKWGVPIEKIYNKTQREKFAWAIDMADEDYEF
Put plainly: Top1-mediated DNA cleavage assay. The data set is classed as biochemical. The settings on record: score based on the activity of 1 μM 1 (camptothecin); tested at 0.1, 1, 10, 100 μM. How it is done: Approximately 2 nM radiolabeled DNA substrate was incubated with recombinant Top in 20 μL of reaction buffer [10 mM Tris-HCl (pH 7.5), 50 mM KCl, 5 mM MgCl2, 0.1 mM EDTA, and 15 μg/mL BSA] at 25° C. for 20 min in the presence of various concentrations of test compounds. […] Aliquots of each reaction mixture were subjected to 20% denaturing PAGE.
The Top1-mediated DNA cleavage assay was used to measure Top1 inhibitory activity. This assay measures the ability of the compound to stabilize DNA cleavage in a 3′-[^32P]-labeled DNA substrate via Top1 poisoning.

The test system of data set [2] is 60 human cancer cell lines. Put plainly: NCI-60 single-dose cytotoxicity assay. The data set is classed as cell-based. The settings on record: mean-graph midpoint of percent growth of 60 human cancer cell lines, 10 μM drug, 48 h, relative to no-drug control and time zero. As to the method:
The new indenoisoquinolines were evaluated for cancer cell growth inhibitory activities. The National Cancer Institute's NCI-60 cytotoxicity assay measures the ability of test agents to inhibit the growth of approximately 60 different cancer cell lines. In the initial single-dose assay, cells are treated with a 10 μM dose of test agent. The growth of treated cells versus untreated cells is then compared. If a test agent induces a sufficiently low mean growth percent, it is promoted to five-dose testing to determine a mean graph midpoint (MGM) GI50 value. In five-dose testing, cells are treated with test agent concentrations ranging from 10^−8 to 10^−4 M. The concentration required to achieve 50% growth inhibition in a particular cell line is calculated. In situations in which this value is greater than 100 μM or less than 0.01 μM, it is recorded as 100 μM and 0.01 μM, respectively. The values for each of the tested cell lines are averaged to obtain a mean graph midpoint (MGM) GI50 value. MGM GI50 values are often, but not always, determined from two separate rounds (Table 1).

In data set [3] the target is recombinant TDP1 (Homo sapiens, UniProt Q9NUW8). Put plainly: Recombinant TDP1 assay. The data set is classed as biochemical. The settings on record: recombinant TDP1, gel-based; read-out: TDP1: IC50 values for the inhibition of TDP1. How it is done:
A 5′-[^32P]-labeled single-stranded DNA oligonucleotide containing a 3′-phosphotyrosine (N14Y) was incubated at 1 nM with 10 pM recombinant TDP1 in the absence or presence of inhibitor for 15 min at room temperature in the LMP1 assay buffer containing 50 mM Tris HCl, pH 7.5, 80 mM KCl, 2 mM EDTA, 1 mM DTT, 40 μg/mL BSA, and 0.01% Tween-20^18. […] Gels were dried and exposed to a PhosphorImager screen (GE Healthcare). Gel images were scanned using a Typhoon 8600 (GE Healthcare), and densitometry analyses were performed using ImageQuant software (GE Healthcare).
TDP1 is involved in the repair of DNA damage that results from the action of Top1 poisons, which induce the formation of DNA-protein adducts that include a 3′-phosphotyrosyl linkage. The TDP1 inhibition assay assesses a test agent's ability to inhibit the enzyme-induced cleavage of a 5′-^32P, 3′-phosphotyrosyl-DNA oligonucleotide, called N14Y. Cleavage of the phosphodiester bond between the 3′-phosphate and tyrosine releases […] from the DNA oligonucleotide. The enzyme-processed DNA oligonucleotide lacking its 3′-phosphotyrosyl moiety is designated N14P. A schematic representation of the assay and a representative gel are shown in FIG. 2, and the TDP1 screening results are listed in Table 1.

Data set [4] concerns the target T2, recombinant human TDP2 (Homo sapiens, UniProt O95551).
T2 sequence (O95551 1-362): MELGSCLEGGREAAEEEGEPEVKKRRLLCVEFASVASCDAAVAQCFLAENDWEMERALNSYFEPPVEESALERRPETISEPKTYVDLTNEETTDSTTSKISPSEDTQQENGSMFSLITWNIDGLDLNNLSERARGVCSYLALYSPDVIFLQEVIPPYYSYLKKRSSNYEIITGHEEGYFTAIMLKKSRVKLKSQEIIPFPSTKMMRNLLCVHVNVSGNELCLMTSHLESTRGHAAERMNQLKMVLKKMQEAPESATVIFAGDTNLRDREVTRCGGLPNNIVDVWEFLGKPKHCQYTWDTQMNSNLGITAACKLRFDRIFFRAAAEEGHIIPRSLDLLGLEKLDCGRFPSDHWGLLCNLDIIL
Description: Recombinant TDP2 assay. The data set is classed as biochemical. The settings on record: recombinant human TDP2, gel-based; read-out: TDP2: IC50 values for the inhibition of TDP2. From the text:
Reactions were terminated and treated similarly to recombinant TDP1 reactions.
TDP2, as opposed to TDP1, cleaves the phosphotyrosyl linkage in 5′-phosphotyrosyl-DNA oligonucleotides.

Sequence of recombinant TDP1 (Q9NUW8 whole entry, species assumed): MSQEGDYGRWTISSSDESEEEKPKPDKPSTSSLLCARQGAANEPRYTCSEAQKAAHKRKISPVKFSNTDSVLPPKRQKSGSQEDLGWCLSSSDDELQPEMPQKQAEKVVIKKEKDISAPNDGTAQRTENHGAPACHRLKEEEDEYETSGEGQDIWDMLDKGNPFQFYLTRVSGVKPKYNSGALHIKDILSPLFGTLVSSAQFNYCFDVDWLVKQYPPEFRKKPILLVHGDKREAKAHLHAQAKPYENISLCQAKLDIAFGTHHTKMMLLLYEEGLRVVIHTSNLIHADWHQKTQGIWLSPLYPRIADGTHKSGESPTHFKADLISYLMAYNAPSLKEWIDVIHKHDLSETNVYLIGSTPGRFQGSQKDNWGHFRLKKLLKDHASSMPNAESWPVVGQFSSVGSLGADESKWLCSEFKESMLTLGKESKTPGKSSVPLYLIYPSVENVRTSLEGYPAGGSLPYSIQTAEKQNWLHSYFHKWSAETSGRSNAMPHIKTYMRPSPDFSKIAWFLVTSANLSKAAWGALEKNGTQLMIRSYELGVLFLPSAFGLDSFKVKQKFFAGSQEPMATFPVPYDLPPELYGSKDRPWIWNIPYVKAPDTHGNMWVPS

For the compound `NCCCn1c2c(c3ncccc3c1=O)C(=O)c1ccccc1-2` (as salt: hydrochloride) [Compound 57, 6-(3-Aminopropyl)-1-aza-5,6-dihydro-5,11-dioxo-indeno[1,2-c]isoquinoline Dihydrochloride], the melting point was in the range of 226 to 228 °C.

The compound `NCCCn1c2c(c3cnccc3c1=O)C(=O)c1ccccc1-2` (as salt: hydrochloride) [Compound 58, 6-(3-Aminopropyl)-2-aza-5,6-dihydro-5,11-dioxo-indeno[1,2-c]isoquinoline Dihydrochloride] returned a melting point of 272 to 274 °C.

Consider `NCCCn1c2c(c3ccncc3c1=O)C(=O)c1ccccc1-2` (as salt: hydrochloride) [Compound 59, 6-(3-Aminopropyl)-3-aza-5,6-dihydro-5,11-dioxo-indeno[1,2-c]isoquinoline Dihydrochloride], for which the melting point was 253 to 254 °C.

Consider `NCCCn1c2c(c3cccnc3c1=O)C(=O)c1ccccc1-2` (as salt: hydrochloride) [Compound 60, 6-(3-Aminopropyl)-4-aza-5,6-dihydro-5,11-dioxo-indeno[1,2-c]isoquinoline Dihydrochloride], for which the melting point was in the range of 284 to 286 °C.

The compound `O=C1c2ccccc2-c2c1c1ncccc1c(=O)n2CCCN1CCOCC1` [Compound 36, 1-Aza-5,6-dihydro-6-(3-morpholinopropyl)-5,11-dioxo-indeno[1,2-c]isoquinoline] came in with a melting point of 223 to 224 °C. In addition, the “Top 1: compound-induced DNA cleavage due to Top1 poisoning” value (“Top 1: compound-induced DNA cleavage due” below) in data set [1] is “++ (++, between 50 and 75% activity)”. In addition, in data set [2], the “Mean Growth %” value worked out at 87.9%. For the same compound, the pIC50 in data set [3] is under 3.95. The pIC50 in data set [4] was under 3.95.

Compound `O=C1c2ccccc2-c2c1c1cnccc1c(=O)n2CCCN1CCOCC1` [Compound 37, 2-Aza-5,6-dihydro-6-(3-morpholinopropyl)-5,11-dioxo-indeno[1,2-c]isoquinoline] displayed a melting point of 218 to 219 °C. Further, the “Top 1: compound-induced DNA cleavage due” value in data set [1] was “+++ (+++, between 75 and 95% activity)”. Besides, the pIC50 in data set [3] was under 3.95. Besides, in data set [4], the pIC50 was under 3.95.

Take `O=C1c2ccccc2-c2c1c1ccncc1c(=O)n2CCCN1CCOCC1` [Compound 38, 3-Aza-5,6-dihydro-6-(3-morpholinopropyl)-5,11-dioxo-11H-indeno[1,2-c]isoquinoline]: the melting point lay within 210 to 211 °C. In addition, the “Top 1: compound-induced DNA cleavage due” value in data set [1] is “++ (++, between 50 and 75% activity)”. Moreover, in data set [3], the pIC50 is under 3.95. Besides, in data set [4], the pIC50 is under 3.95.

Compound `O=C1c2ccccc2-c2c1c1cccnc1c(=O)n2CCCN1CCOCC1` [Compound 39, 4-Aza-5,6-dihydro-6-(3-morpholinopropyl)-5,11-dioxo-indeno[1,2-c]isoquinoline] displayed a melting point of 177 to 178 °C. Besides, the “Top 1: compound-induced DNA cleavage due” value in data set [1] was “+++ (+++, between 75 and 95% activity)”. In addition, the “Mean Growth %” value in data set [2] turned out to be 42.9%. The pIC50 in data set [3] is under 3.95. Moreover, in data set [4], the pIC50 was under 3.95.

Consider `O=C1c2ccccc2-c2c1c1ncccc1c(=O)n2CCCn1ccnc1` [Compound 40, 1-Aza-5,6-dihydro-6-(3-(1H-imidazol-1-yl)propyl)-5,11-dioxo-indeno[1,2-c]isoquinoline], for which the melting point lay within 242 to 243 °C. In data set [1], the “Top 1: compound-induced DNA cleavage due” value is “++ (++, between 50 and 75% activity)”. Further, the “Mean Growth %” value in data set [2] is reported as 83.6%. Besides, the pIC50 in data set [3] was under 3.95. In addition, in data set [4], the pIC50 was under 3.95.

For `O=C1c2ccccc2-c2c1c1cnccc1c(=O)n2CCCn1ccnc1` [Compound 41, 2-Aza-5,6-dihydro-6-(3-(1H-imidazol-1-yl)propyl)-5,11-dioxo-indeno[1,2-c]isoquinoline], the melting point lay in the range of 274 to 275 °C. Also, the “Top 1: compound-induced DNA cleavage due” value in data set [1] was “++ (++, between 50 and 75% activity)”. Besides, the “Mean Growth %” value in data set [2] is recorded as 67.8%. For the same compound, the pIC50 in data set [3] was under 3.95. In addition, in data set [4], the pIC50 was under 3.95.

In turn, `O=C1c2ccccc2-c2c1c1ccncc1c(=O)n2CCCn1ccnc1` [Compound 42, 3-Aza-5,6-dihydro-6-(3-(1H-imidazol-1-yl)propyl)-5,11-dioxo-11H-indeno[1,2-c]isoquinoline] gave a melting point of 251 to 252 °C. For the same compound, the “Top 1: compound-induced DNA cleavage due” value in data set [1] is “+ (+, between 20 and 50%activity)”. For the same compound, the “Mean Growth %” value in data set [2] was 47.5%. For the same compound, the negative logarithm of the IC50 (pIC50) in data set [3] is under 3.95. Also, in data set [4], the pIC50 was under 3.95.

Take `O=C1c2ccccc2-c2c1c1ccncc1c(=O)n2C[C@H](O)CO` [Compound 50, (2′S)-3-Aza-5,6-dihydro-6-(2′,3′-dihydroxypropyl)-5,11-dioxo-indeno[1,2-c]isoquinoline]: the melting point fell in the range of 237 to 238 °C. In data set [1], the “Top 1: compound-induced DNA cleavage due” value was “++ (++, between 50 and 75% activity)”.

Take `NCCCn1c2c(c3ncccc3c1=O)C(=O)c1ccccc1-2` [Compound 57, 6-(3-Aminopropyl)-1-aza-5,6-dihydro-5,11-dioxo-indeno[1,2-c]isoquinoline Dihydrochloride]: the “Top 1: compound-induced DNA cleavage due” value in data set [1] is “++ (++, between 50 and 75% activity)”. Also, the pIC50 in data set [3] was 4.37 and 4.20; in data set [4], under 3.95.

Regarding `NCCCn1c2c(c3cnccc3c1=O)C(=O)c1ccccc1-2` [Compound 58, 6-(3-Aminopropyl)-2-aza-5,6-dihydro-5,11-dioxo-indeno[1,2-c]isoquinoline Dihydrochloride], the “Top 1: compound-induced DNA cleavage due” value in data set [1] was “++ (++, between 50 and 75% activity)”. The pIC50 in data set [3] was 4.72 and 4.52; in data set [4], about 3.95.

As for `NCCCn1c2c(c3ccncc3c1=O)C(=O)c1ccccc1-2` [Compound 59, 6-(3-Aminopropyl)-3-aza-5,6-dihydro-5,11-dioxo-indeno[1,2-c]isoquinoline Dihydrochloride], the pIC50 is 4.52 and 4.32 in data set [3]; about 3.95 in data set [4].
